Where two headings read alike, the source gives them in different places.

The nature of data set [1]: Whole body autoradiography of pregnant mice, cadmium isotope 109Cd. As to conditions: for Passage of Cd through the placenta: pregnant mice, intravenous 109CdCl2, about 18th day after conception, autoradiography. Type of data set: in vivo. The procedure: (§1) The present inventor commissioned studies where the function of the placenta was investigated using radioactive isotopes of cadmium and zinc. Pregnant female mice were injected intravenously with 8 μc of ^109CdCl2 obtained from Philips Ltd., Eindhoven, Holland. The injection of isotope was made into the tail vein according to standard practice. The mice were injected so that the day of sacrifice coincided approximately with the 18th day after conception, determined by the presence of a vaginal plug after mating. The mice were sacrificed under ether anesthesia by immersion in a mixture of acetone and liquid carbon dioxide (about −80 C). The mice were then sagittally sectioned in a cold room at −10 C according to standard practice, and the sections obtained were affixed to cellulose tape.
(§2) Each section was then apposed to X-ray film together with an isotope reference standard. The sections and films were kept at −10 C until exposure was complete. The determination of the order of cadmium and zinc concentration in different organs was made through densitometric comparison of the autoradiographic exposure caused by the organs, compared to the reference standard.

For data set [2] the following is noted: cited from earlier work.
The nature of data set [3]: Whole body autoradiography of pregnant mice, zinc isotope 65Zn. Type of data set: in vivo. As for the experimental part: as §1, §2

Turning to `[Cd]` [Cd, cadmium], the results for the “Passage of Cd through the placenta” value in data set [1] and in data set [1] (listed as 109Cd) were “did not pass the placental barrier” and “no cadmium has passed through the placenta into the fetus”, respectively. Further, the “Tissue enrichment of 109Cd” value in data set [1] (pregnant mouse, autoradiograph, FIG. 3) was “enriched in the liver and kidney, and to some extent in placental tissue”. The “Concentration at which acute toxicity is observed” value in data set [2] (cadmium in blood) is “around 50 μng/ml”. The “Threshold at which medical treatment needs to be initiated” value in data set [2] (cadmium, information supplied by VITA Laboratorio) is 50 nmol/L.

As for `[Zn]` [Zn, zinc], the “Passage of Zn through the placenta” value in data set [3] was “passed through the placenta and was enriched in the fetal tissue”; in data set [3] (listed as 65Zn), “capable of passing through the placenta”.
